In US20140377189A1, “PULMONARY ADMINISTRATION OF ROTIGOTINE” (MAP Pharmaceuticals, Inc., priority 2013, published 2014):

Test: In situ rotigotine salt screening (precipitate formation in ethanol/HFA 227 solution formulation)
Assay type: physicochemical
Settings: 10% (w/w) ethanol in HFA 227; for Observation 1 week at 5° C. / Observation Immediate / Observation 1 week at RT: 1 mg/mL rotigotine free base with acid; for Observation 1 week at 5° C.: another week at 5° C. after 1 week at RT; for Observation Immediate: immediately upon preparation; for Observation 1 week at RT: stored 1 week at room temperature
Protocol: Rotigotine, bulk drug substance, was purchased from Chemagis (Perrigo API). A stock solution of rotigotine was prepared by dissolving rotigotine particles in ethanol at 10 mg/mL. With 1.5 mL rotigotine stock solution added to formulation bottles, each formulation bottle contained 15 mg rotigotine. For preparation of acid stock solutions, it was assumed that complete reaction or ion-pairing between rotigotine and acid. Based on the molecular weight and number of anions of each acid as listed in Table 1, acids stock solutions were prepared by dissolving the required amount in ethanol.
Each formulation bottle was filed with 1.5 mL of rotigotine stock solution and 1.0 ml, of acid stock solution. The formulation bottles (PET bottles) were then sealed with continuous valves and vortexed for 30 seconds to mix the solution well. Finally, 17.6 g of 1,1,1,2,3,3,3-heptafluoropropane (HFA227 (Mexichem)) to make a final volume of 15 mL of rotigotine formulation. All the bottles were hand shaken for 10 seconds.
All in situ salt screening samples were made as 1 mg/mL of rotigtine free base in 10% (w/w) ethanol in HFA 227. Acids corresponding to the salt forms in Table 1 were added according to the molar ratio with rotigotine for complete reaction. As 1 mg/mL was the minimal required dose at the time of experiment, all formulations were tested at this level to screen out non-solution salt formulations.
These were the rotigotine citrate, fumarate, succinate, sulfate, tartrate, xinafoate salt formulations. […] rotigotine salt formulations were immediately ruled out as the precipitate formation was not desired. All clear solution samples were stored at room temperature (RT) for 1 week. […] These were rotigotine acetate, benzoate and mesylate salt formulations. These 3 rotigotine salt formulations were also ruled out as precipitate formation is not desired. The rest of the samples remained as clear solutions (stable) at after another week at 5° C.
Out of the 7 acids that remained a clear solution after 1 week of storage, rotigotine maleate was selected as the lead candidate and suitable as a stable solution for oral pulmonary aerosol delivery.

Compound	Observation 1 week at 5° C.	Observation Immediate	Observation 1 week at RT	stayed in solution formulation at the minimum required concentration (minimum required concentration 1 mg/mL)
rotigotine pamoate	solution	solution	solution	–
rotigotine glycolate	solution	solution	solution	–
CC(=O)O.CCCN(CCc1cccs1)[C@H]1CCc2c(O)cccc2C1 [Acetate, rotigotine acetate]	–	solution	red precipitate	–
rotigotine palmitate	solution	solution	solution	–
Tartrate	–	white precipitate	–	–
rotigotine stearate	solution	solution	solution	–
rotigotine citrate	–	white precipitate	–	–
O=S(=O)(O)O [Sulfate]	–	white precipitate	–	–
rotigotine maleate	solution	solution	solution	stayed in solution
rotigotine propionate	solution	solution	solution	–
Fumarate	–	white precipitate	–	–
Benzoate	–	solution	red precipitate	–
CC(O)C(=O)O.CCCN(CCc1cccs1)[C@H]1CCc2c(O)cccc2C1 [Lactate, rotigotine lactate]	solution	solution	solution	–
